Assay results from patent publication US5861424A, “Composition and method for treating cancer” (priority 1995, dated 1999).
Read-outs that look alike come from different tables or passages of the source.

Legend:
[1] = test system: human colon carcinoma cell line CX-1; assay: Colony formation assay, human colon carcinoma CX-1; type: cell-based; settings: for IC50: Homo sapiens, Colon carcinoma cell; for IC50 / CX-1 (IC50): 24 h treatment, colony count after 7 to 10 days; for Selectivity (ratio of IC50 for CV-1 and IC50 for CX-1): CV-1/CX-1
Method: Human colon carcinoma cell line CX-1 or normal monkey kidney epithelial cell line CV-1 was chosen as representatives of cancer cells and normal cells, respectively. […] CX-1 cells (2,000 cells/well) and CV-1 cells (1,000 cells/well) were plated in 24-well plastic culture plates. […] The control received culture media only. Cells were treated with compounds of General Formulas (1) to (6) at 37° C. for 24 hours. After rinsing with fresh culture medium three times, the cells were further incubated at 37° C. for 7 to 10 days. Cell colonies were fixed and stained with 2% crystal violet in 70% ethanol for 10 minutes and rinsed in water. […] The selectivity is defined as the ratio of IC50 for CV-1 and IC50 for CX-1.

human melanoma LOX = assay: Survival of nude mice implanted with human melanoma LOX; type: in vivo, human melanoma in male athymic Swiss nu/nu mouse; settings: Mus musculus, ip, 24 h, read-out: T/C (survival)
Method: LOX, a human melanoma cell line, grown subcutaneously in nude mice was excised, trypsinized to yield a single cell suspension using a metal grid with a […]. Red blood cells were lysed by incubation with 0.17 molar ammonium chloride at 4° C. for 20 minutes. Five million viable trypan blue negative cells made up in 0.1 ml of Dulbecco modified Eagles' medium (DME) were injected into the peritoneal cavity of a male athymic Swiss nu/nu mouse. The control group and each treatment group consisted of 5 to 10 mice. Treatment was commenced the following day by intraperitoneal injection.
Ten control mice received 0.25 ml of 2% dextrose on those days the treated groups were injected with the compounds of this invention. The compounds of the General Formulas. (1) to (6) used in this invention which were tested are listed in Table VIII below and the results obtained are shown in Table VIII and FIG. 1-6 of the accompanying drawings. T/C is the ratio, expressed as a percentage of the mean survival age of the treated group to the mean survival age of the untreated control group.

[2] = test system: normal monkey kidney epithelial cell line CV-1; assay: Colony formation assay, normal monkey kidney epithelial cells CV-1; settings: for IC50: Primates, Epithelial cell;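 for all read-outs here: colonies visualized by crystal violet staining, incubation at 37 °C, IC50 relative to untreated wells given culture medium alone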
[3] = test system: human bladder carcinoma EJ cell line; assay: Colony formation assay, human bladder carcinoma EJ; type: cell-based; settings: Table IV; for IC50: Homo sapiens, EJ, 24 h, 24 h treatment, read-out: EJ (IC50); for Selectivity (CV-1 IC50 / EJ IC50): CV-1/EJ
Source text: (§1) The control received culture media only.

[4] = test system: human melanoma LOX cell line; assay: Colony formation assay, human melanoma LOX; type: cell-based; settings: Table V; for IC50: Homo sapiens, LOX, 24 h, 24 h treatment, read-out: LOX (IC50); for Selectivity (CV-1 IC50 / LOX IC50): CV-1/LOX
Source text: as §1

[5] = test system: human breast carcinoma MCF-7 cell line; assay: Colony formation assay, human breast carcinoma MCF-7; type: cell-based; settings: for Selectivity (CV-1 IC50 / MCF-7 IC50): CV-1/MCF-7; for IC50: Homo sapiens, MCF7, 24 h, read-out: MCF-7 (IC50)
Source text: as §1
The Selectivity values, MCF-7 values and CV-1 values for compounds of the General Formulas (1) to (6) used in the present invention are shown in Table VI below.

[6] = test system: human pancreatic carcinoma CRL 1420 cell line; assay: Colony formation assay, human pancreatic carcinoma CRL 1420; type: cell-based; settings: Table VII; for CRL-1420 (IC50) / IC50: 24 h treatment; for Selectivity (CV-1 IC50 / CRL-1420 IC50): CV-1/CRL-1420; for IC50: Homo sapiens, 24 h
Source text: as §1
The Selectivity values, CRL 1420 values and CV-1 values for compounds of the General Formulas (1) to (6) used in the present invention are shown in Table VII below.

[7] = Table III, read-out: CX-1 (IC50)
[8] = read-out: CV-1 (IC50), Table III, 24 h treatment, colony count after 7 to 10 days
[9] = read-out: CV-1 (IC50), Table IV
[10] = read-out: CV-1 (IC50), Table VII
[11] = read-out: CV-1 (IC50), Table VI
[12] = Table III, 24 h treatment, colony count after 7 to 10 days

Row | SMILES | IC50 [1, 7] | Selectivity (ratio of IC50 for CV-1 and IC50 for CX-1) ([1]; Table III) | IC50 [2, 8] | IC50 [3] | Selectivity (CV-1 IC50 / EJ IC50) [3] | IC50 [4] | Selectivity (CV-1 IC50 / LOX IC50) [4] | Selectivity (CV-1 IC50 / MCF-7 IC50) ([5]; Table VI) | Selectivity (CV-1 IC50 / CRL-1420 IC50) [6] | IC50 ([2]; read-out: CV-1 (IC50), Table V) | IC50 [6] | IC50 [2, 10] | IC50 ([5]; Table VI, 24 h treatment) | other results
1 | CCC[n+]1c(C=c2sc(=CC=C3Sc4c(ccc5ccccc45)N3CC)c(=O)n2CC)sc2cc(C)c(OCC)cc21 [Compound 6] | 0.025 µg/mL | 400 | – | – | – | – | – | – | – | – | – | – | – | response vs control in vivo at 5 mg/kg (human melanoma LOX; i.p. on day 1, 3, 5, 7): 126%; IC50 ([2]; read-out: CV-1 (IC50)): 10 µg/mL
2 | CCN1C(=CC=c2sc(=Cc3sc4c5ccccc5ccc4[n+]3CC)n(CC)c2=O)Sc2ccc3ccccc3c21 [Compound 31] | 0.025 µg/mL | 400 | 10 µg/mL | – | – | – | – | – | – | – | – | – | – | response vs control in vivo at 40 mg/kg (human melanoma LOX; 40 mg/kg, i.p. on day 1, 2, 3, 4, 8, 10, 17): 169%
3 | CCN1C(=CC=c2sc(=Cc3sc4c5ccccc5ccc4[n+]3C)n(CC)c2=O)Sc2ccc3ccccc3c21 [Compound 33] | 0.02 µg/mL | 1000 | 20 µg/mL | – | – | – | – | – | – | – | – | – | – | response vs control in vivo at 10 mg/kg (human melanoma LOX; i.p. on day 1, 2, 3, 4, 5, 7, 8, 9, 10, 11): 173%
4 | CCN1C(=CC=c2sc(=Cc3sc4ccccc4[n+]3CC)n(CC)c2=O)Sc2ccc3ccccc3c21 [Compound 37] | 0.02 µg/mL | 250 | – | 0.03 µg/mL | 167 | 0.05 µg/mL | 100 | 100 | 167 | 5 µg/mL | – | – | – | MCF-7 (IC50) ([5]; Table VI, 24 h treatment): 0.05 µg/mL; CRL-1420 (IC50) [6]: 0.03 µg/mL; IC50 [2, 9]: 5 µg/mL
5 | CCN1C(=CC=c2sc(=Cc3scc[n+]3CC)n(CC)c2=O)Sc2ccc3ccccc3c21 [Compound 41] | – | – | – | – | – | – | – | – | 120 | – | 0.05 µg/mL | 1.5 µg/mL | – | response vs control in vivo at 5 mg/kg (human melanoma LOX; i.p. on day 1, 5, 9): 128%
6 | CCN1C(=CC=c2sc(=Cc3sc4c5ccccc5ccc4[n+]3C)n(CC)c2=O)Sc2ccc3ccccc3c21 [Compound 49] | – | 667 | – | 0.045 µg/mL | 444 | 0.075 µg/mL | 267 | 333 | 267 | 20 µg/mL | 0.075 µg/mL | 20 µg/mL | 0.06 µg/mL | CX-1 (IC50) ([1]; Table III): 0.03 µg/mL; IC50 [2, 9]: 20 µg/mL; IC50 [2, 11]: 20 µg/mL
7 | CCN1CCSC1=CC=c1sc(=Cc2sc3ccc(OC)cc3[n+]2CC)n(CC)c1=O [Compound 125] | 0.04 µg/mL | 200 | – | 0.06 µg/mL | 133 | 0.06 µg/mL | 133 | 133 | 160 | 8 µg/mL | 0.05 µg/mL | 8 µg/mL | 0.06 µg/mL | IC50 [2, 9]: 8 µg/mL; IC50 [2, 11]: 8 µg/mL
8 | CCn1c(=Cc2sc3ccccc3[n+]2CC)sc(=CC=C2SCCN2C)c1=O [Compound 141] | 0.05 µg/mL | 400 | 20 µg/mL | – | – | 0.064 µg/mL | 312 | 109 | 444 | 20 µg/mL | 0.045 µg/mL | 20 µg/mL | 0.184 µg/mL | IC50 [2, 11]: 20 µg/mL
9 | CCN1CCSC1=CC=c1sc(=Cc2sc3ccccc3[n+]2CCOC)n(CC)c1=O [Compound 145] | 0.05 µg/mL | 200 | – | 0.082 µg/mL | 122 | 0.064 µg/mL | 156 | 100 | 122 | – | 0.082 µg/mL | – | 0.1 µg/mL | IC50 ([2]; read-out: CV-1 (IC50)): 10 µg/mL
10 | CCN1CCSC1=CC=c1sc(=Cc2sc3c4ccccc4ccc3[n+]2CC)n(CC)c1=O [Compound 150] | – | 100 | – | – | – | – | – | – | – | – | – | – | – | CX-1 (IC50) ([1]; Table III): 0.01 µg/mL; response vs control in vivo at 5 mg/kg (human melanoma LOX; i.p. on day 1, 2, 9, 13, 16): 216%; CV-1 (IC50) [2, 12]: 1 µg/mL
11 | CCN1C(=CC=c2sc(=Cc3sc4ccccc4[n+]3CC)n(CC)c2=O)Sc2ccc3ccccc3c21 [Compound 178] | – | 200 | – | – | – | – | – | 435 | 154 | – | – | – | – | CX-1 (IC50) ([1]; Table III): 0.01 µg/mL; MCF-7 (IC50) ([5]; Table VI, 24 h treatment): 0.0046 µg/mL; CRL-1420 (IC50) [6]: 0.013 µg/mL; CV-1 (IC50) [2, 12]: 2 µg/mL; CV-1 (IC50) ([2]; Table VI): 2 µg/mL; CV-1 (IC50) ([2]; Table VII): 2 µg/mL
12 | CCn1c(=Cc2sc(-c3ccccc3)c(-c3ccccc3)[n+]2CC)sc(=CC=C2N(C)c3ccccc3C2(C)C)c1=O [Compound 204] | – | – | – | – | – | – | – | – | – | – | – | – | – | response vs control in vivo at 5 mg/kg (human melanoma LOX; i.p. on day 1, 4, 7, 10, 13, 16, 19, 22): 174%
13 | CCn1c(=Cc2sc3ccccc3[n+]2CC)sc(=CC=C2N(C)c3ccccc3C2(C)C)c1=O [Compound 206] | 0.01 µg/mL | 600 | 6 µg/mL | 0.013 µg/mL | 462 | 0.03 µg/mL | 196 | 125 | 196 | 6 µg/mL | 0.03 µg/mL | 6 µg/mL | 0.048 µg/mL | IC50 [2, 9]: 6 µg/mL; IC50 [2, 11]: 6 µg/mL
14 | CCN1C(=CC=c2sc(=Cc3sc4c5ccccc5ccc4[n+]3CC)n(CC)c2=O)N(CC(F)(F)C(F)F)c2cc(C(F)(F)F)ccc21 [Compound 230] | 0.05 µg/mL | 375 | 15 µg/mL | 0.05 µg/mL | 300 | 0.06 µg/mL | 200 | 167 | 300 | 15 µg/mL | 0.05 µg/mL | 15 µg/mL | – | IC50 [5]: 0.09 µg/mL; IC50 [2, 9]: 15 µg/mL; IC50 [2, 11]: 15 µg/mL
15 | CCN1C(=CC=c2sc(=Cc3sc4ccc5ccccc5c4[n+]3CC)n(CC)c2=O)N(CC)c2ccccc21 [Compound 234] | – | 333 | – | – | – | 0.03 µg/mL | 333 | 200 | 333 | – | 0.03 µg/mL | – | 0.05 µg/mL | IC50 ([1]; read-out: CX-1 (IC50), Table III): 0.03 µg/mL; IC50 ([2]; read-out: CV-1 (IC50)): 10 µg/mL
16 | CCN1C(=CC=c2sc(=CC3=[N+](CC)CCS3)n(CC)c2=O)C=Cc2ccccc21 [Compound 244] | – | – | – | – | – | – | – | – | – | – | – | – | – | response vs control in vivo at 10 mg/kg (human melanoma LOX; i.p. on day 1, 3, 5, 7, 9): 153%
17 | CCN1C=CC=CC1=CC=c1sc(=Cc2sc3ccc4ccccc4c3[n+]2CC)n(CC)c1=O [Compound 278] | – | 333 | – | – | – | 0.035 µg/mL | 286 | 111 | 250 | – | 0.04 µg/mL | – | – | CX-1 (IC50) ([1]; Table III): 0.03 µg/mL; IC50 [5]: 0.09 µg/mL; IC50 ([2]; read-out: CV-1 (IC50)): 10 µg/mL
18 | CCN1C(=CC=c2oc(=Cc3sc(-c4ccccc4)c(-c4ccccc4)[n+]3CC)n(CC)c2=O)Oc2ccccc21 [Compound 330] | 0.025 µg/mL | 100 | 2.5 µg/mL | – | – | – | – | – | – | – | – | – | – | response vs control in vivo at 5 mg/kg (human melanoma LOX; i.p. on day 1, 3, 5, 7, 9): 128%
